Laboratory results published in patent US20060014723A1, “Anti-parasitic uses of borinic acid complexes” (priority 2004, published 2006).
≈ marks a conversion by molar mass, not a printed value.

Assays:
P. falciparum K1 = test: Malaria in vitro screening model (3H-hypoxanthine incorporation); assay type: cell-based, Plasmodium falciparum; conditions: for IC50: Plasmodium falciparum, K1
Procedure: […] P. falciparum K1 is used in this study. K1 (a clone originating from Thailand) is resistant to chloroquine and pyrimethamine. The strains are maintained in RPMI 1640 medium with 0.36 mM hypoxanthine, supplemented with 25 mM N 2-hydroxyethyipiperazine-N-2-ethane-sulphonic acid (HEPES), 25 mM NaHCO3, neomycin (100 U/mL) and 5 g/L of ALBUMAX® II (lipid-rich bovine serum albumin, GIBCO, Grand Island, N.Y., USA), together with 5% washed human A+ erythrocytes. All cultures and assays are conducted at 37° C. under an atmosphere of 4% CO2, 3% O2 and 93% N2. Cultures are kept in incubation chambers filled with the gas mixture. Subcultures are diluted to a parasitemia of between 0.1 and 0.5% and the medium is changed daily.
Antimalarial activity is assessed using an adaptation of the procedures described by Desjardins et al. (Antimicrob. Agents Chemother. 16:710-718, 1979), and Matile and Pink (In: Lefkovits, I. and Pernis, B. (Eds.), Immunological Methods Vol. IV, Academic Press, San Diego, pp. 221-234, 1990).
Stock drug solutions are prepared in 100% dimethylsulfoxide (DMSO) at 10 mg/mL, and heated or sonicated if necessary to dissolve the sample. After use, the stocks are kept at −20° C. For the assays, the compound is further diluted in serum-free culture medium and finally to the appropriate concentration in complete medium without hypoxanthine.
Assays are performed in sterile 96-well microtiter plates, each well containing 200 μl of parasite culture (0.15% parasitemia, 2.5% hematocrit) with or without serial drug solutions. Seven 2-fold dilutions are used, covering a range from […] to 0.078 μg/mL. For active compounds the highest concentration is lowered (e.g., to […]); for plant extracts the highest concentration is increased to 50 μg/mL. […] After 48 hours of incubation at 37° C., 0.5 μCi ^3H-hypoxanthine is added to each well. Cultures are incubated for a further 24 h before being harvested onto glass-fiber filters and washed with distilled water. The radioactivity is counted using a Betaplate liquid scintillation counter (Wallac, Zurich, Switzerland). The results are recorded as counts per minute per well at each drug concentration and expressed as percentage of the untreated controls. IC50 values are calculated from the sigmoidal inhibition curves using Microsoft EXCEL.

[1] = test system: Leishmania donovani strain MHOM/ET1671L82; test: Leishmaniasis in vitro screening model (axenic amastigotes, Alamar Blue); assay type: cell-based; conditions: for IC50: Leishmania donovani, read-out: L. donovani IC50
Summary of the method: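 Axenic L. donovani amastigotes (10^5 per well) from hamster spleen, grown at 37° C in SM medium pH 5.4 with 10% FBS, 5% CO2, exposed to serial 3-fold compound dilutions (30 to 0.041 μg/mL) for 72 h. Alamar Blue added for 2 h, fluorescence read (ex 536/em 588 nm); IC50 from sigmoidal curve versus control cultures.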

[2] = test system: Trypanosoma cruzi Tulahuen C2C4 strain; test: Chagas disease in vitro screening model (beta-galactosidase strain in L-6 cells); assay type: cell-based; conditions: for IC50: Trypanosoma cruzi, TULAHUEN, L6, read-out: T. cruzi IC50
Summary of the method: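 L-6 rat myoblasts in RPMI 1640/10% FBS at 37 °C were infected with 5×10^3 lacZ-expressing T. cruzi Tulahuen C2C4 trypomastigotes. CPRG/Nonidet substrate was read at 540 nm, and IC50 came from sigmoidal curves.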

[3] = test system: T. b. rhodesiense STIB 900; test: African sleeping sickness in vitro screening model (Alamar Blue); assay type: cell-based, Trypanosoma brucei rhodesiense; conditions: for IC50: Trypanosoma brucei
Summary of the method: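 Bloodstream-form trypomastigotes, 8×10^3/well, were grown in supplemented MEM with 15% horse serum, without hypoxanthine, at 37 °C in 5% CO2. They were exposed for 72 h to seven 3-fold dilutions from 90 to 0.123 μg/mL. Resazurin (Alamar Blue) was added for 2 h, fluorescence read at ex 536/em 588 nm, and IC50 taken as the mean of four values.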

Compound | IC50 (P. falciparum K1) [µg/mL] | IC50 [1] [µg/mL] | IC50 [2] [µg/mL] | IC50 [3] [µg/mL] | P. falciparum IC50 (P. falciparum K1) [µg/mL] | L. donovani IC50 [1] [µg/mL] | T. cruzi IC50 [2] [µg/mL] | T. b. rhodesiense IC50 [3] [µg/mL]
Cc1cc(B(Oc2cccc3cccnc23)c2cccc(C#N)c2)ccc1Cl [Compound 31, (4-Chloro-3-methylphenyl)(3-cyanophenyl)borinic acid quinolin-8-yl ester] | 1.83 (≈ 4.78 µM) | 0.83 (≈ 2.17 µM) | 0.79 (≈ 2.06 µM) | 0.28 (≈ 0.732 µM) |  |  |  | 
Fc1cccc(B(Oc2cccc3cccnc23)c2ccc(Cl)cc2F)c1 [Compound 43, (4-Chloro-2-fluorophenyl)(3-fluorophenyl)borinic acid quinolin-8-yl ester] | 1.83 (≈ 4.82 µM) | 0.02 (≈ 0.0527 µM) | 0.825 (≈ 2.17 µM) | 0.4 (≈ 1.05 µM) |  |  |  | 
CS(=O)(=O)Nc1ccc(B(Oc2cccc3cccnc23)c2cccc(Cl)c2)cc1 [Compound 108] |  |  |  |  | 2.417 | 0.59 | 4.95 | 0.305
C=CB(Oc1cccc2cccnc12)c1ccc(F)c(Cl)c1 [Compound 116] |  |  |  |  | 3.95 | >30 | 3.65 | 0.5865
CC1(C)COC(c2cccc(B(Oc3c(Cl)cc(Cl)c4cccnc34)c3cccc(F)c3)c2)=N1 [Compound 81] |  |  |  |  | 3.355 | 0.18 | 4.2 | 1.9
COc1ccc(B(Oc2cccc3cccnc23)c2ccc(Cl)cc2)cc1F [Compound 41, (4-Chlorophenyl)(3-fluoro-4-methoxyphenyl)borinic acid quinolin-8-yl ester] | 1.63 (≈ 4.16 µM) | 0.29 (≈ 0.74 µM) | 0.935 (≈ 2.39 µM) | 0.38 (≈ 0.97 µM) |  |  |  | 
O=C(OB(c1ccc(Cl)cc1)c1ccc(Cl)cc1)c1ncccc1OCCN1CCOCC1 [Compound 76] |  |  |  |  | 3.81 | 2 | 4.05 | 19.8
C=CB(Oc1cccc2cccnc12)c1cccc(C2=NC(C)(C)CO2)c1 [Compound 93] |  |  |  |  | 3.034 | 0.55 | 3.65 | 0.32
Fc1cc(B(Oc2cccc3cccnc23)c2ccc(Cl)cc2)cc(C(F)(F)F)c1 [Compound 47, (4-Chlorophenyl)(3-fluoro-5-trifluoromethylphenyl)borinic acid quinolin-8-yl ester] | 2.07 (≈ 4.82 µM) | 0.51 (≈ 1.19 µM) | 1.7 (≈ 3.96 µM) | 0.5 (≈ 1.16 µM) |  |  |  | 
C=CB(Oc1c(Cl)cc(Cl)c2ccc(C)nc12)c1cccc(N(C)C)c1 [Compound 84] |  |  |  |  | 2.364 | 0.16 | 1.7 | 0.915
Fc1cc(B(Oc2cccc3cccnc23)c2cccc(Cl)c2)cc(C(F)(F)F)c1 [Compound 123] |  |  |  |  | 3.51 | 0.54 | 4 | 0.31
CN(C)Cc1ccc(B(Oc2cccc3cccnc23)c2ccc(C#N)cc2)cc1 [Compound 125] |  |  |  |  | 4.973 | 0.38 | 4.9 | 0.5
Fc1cc(B(Oc2cccc3cccnc23)c2ccc(Cl)c(F)c2)ccc1Cl [Compound 89] |  |  |  |  | 1.385 | 0.38 | 1.36 | 0.41
C=CB(Oc1c(Cl)cc(Cl)c2ccc(C)nc12)c1cccnc1 [Compound 82] |  |  |  |  | 2.647 | 0.22 | 1.95 | 1.19
N#Cc1ccc(B(Oc2cccc3cccnc23)c2ccc(F)cc2F)cc1 [Compound 98] |  |  |  |  | 3.245 | 0.59 | 4.05 | 0.345
Cc1ccc(B(OC(=O)c2ncccc2O)c2ccc(C)c(Cl)c2)cc1Cl [Compound 69] |  |  |  |  | 2.449 | 0.22 | 3.35 | 16.5
Clc1ccccc1C=CBOc1cccc2cccnc12 [Compound 36, (2-Chlorophenyl)vinyl borinic acid quinolin-8-yl ester] | 1.5 (≈ 5.11 µM) | 0.39 (≈ 1.33 µM) | 0.785 (≈ 2.67 µM) | 0.18 (≈ 0.613 µM) |  |  |  | 
N#Cc1cccc(B(Oc2cccc3cccnc23)c2ccc(F)cc2F)c1 [Compound 96] |  |  |  |  | 3.035 | 0.63 | 3.3 | 0.34
C=CB(Oc1cccc2cccnc12)c1cccnc1 [Compound 49, (3-Pyridyl)vinylborinic acid 8-hydroxyquinoline ester] |  |  |  |  | 1.58 | 0.45 | 1.345 | 0.2185
N#Cc1cccc(B(Oc2cccc3cccnc23)c2cccc(F)c2)c1 [Compound 29, (3-Cyanophenyl)(3-fluorophenyl)borinic acid quinolin-8-yl ester] | 1.83 (≈ 5.2 µM) | 0.4 (≈ 1.14 µM) | 0.68 (≈ 1.93 µM) | 0.33 (≈ 0.937 µM) |  |  |  | 
O=C(OB(c1cccc(Cl)c1)c1cccc(Cl)c1)c1ncccc1OCCN1CCOCC1 [Compound 77] |  |  |  |  | 1.225 | 1.1 | 5.15 | 17.2
N#Cc1cccc(B(Oc2cccc3cccnc23)c2ccccc2F)c1 [Compound 33, (3-Cyanophenyl)(2-fluorophenyl)borinic acid quinolin-8-yl ester] | 1.79 (≈ 5.08 µM) | 0.61 (≈ 1.73 µM) | 1.39 (≈ 3.95 µM) | 0.3 (≈ 0.852 µM) |  |  |  | 
CSc1cccc(B(Oc2cccc3cccnc23)c2cccc(SC)c2)c1 [Compound 87] |  |  |  |  | 4.632 | 0.39 | 3.2 | 0.3
Fc1ccc(F)c(B(Oc2cccc3cccnc23)c2ccc(Cl)cc2)c1 [Compound 40, (4-Chlorophenyl)(2,5-difluorophenyl)borinic acid quinolin-8-yl ester] | 1.72 (≈ 4.53 µM) | 0.59 (≈ 1.55 µM) | 0.89 (≈ 2.34 µM) | 0.295 (≈ 0.777 µM) |  |  |  | 
Cc1cc(B(Oc2cccc3cccnc23)c2ccc(C#N)cc2)ccc1Cl [Compound 34, (4-Chloro-3-methylphenyl)(4-cyanophenyl)borinic acid quinolin-8-yl ester] | 1.39 (≈ 3.63 µM) | 0.07 (≈ 0.183 µM) | 0.82 (≈ 2.14 µM) | 0.23 (≈ 0.601 µM) |  |  |  | 
